The source of these data is ChEMBL document CHEMBL1201862, “PubChem BioAssay data set” (2004).

Each structure is given as a SMILES string.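 Compound exposure: 48 hours, 5 concentrations, 96-well plates. GI50 marks 50% less growth.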 Calls of active or inactive are those of the source. Cut-off read from the data, not from the text of the source: active = GI50 up to about 1.1 µM and inactive = higher. Residues, ends and D or L forms follow the SMILES beside them. *: point of attachment. Boc = CC(C)(C)OC(=O)*; OBn = c1ccc(CO*)cc1

Test systems include A498; ACHN; CCRF-CEM; EKVX; HCT-116; HOP-62; KM12; MCF7; MDA-MB-435; NCI-H226; NCI-H23; NCI-H460; RPMI-8226; SF-295; SK-OV-3; SNB-75; SR; TK-10; UO-31; HCT-15.
Common to all, as to assay: NCI anticancer screen, dose series, 48 h

In the case of `O=c1n(CC2CO2)c(=O)n(CC2CO2)c(=O)n1CC1CO1` (stereo not given) [TEROXIRONE], the GI50 with A498 was 30.3 µM (inactive); in the test on ACHN, 1.36 µM (inactive); in the test on CCRF-CEM, 3.6 µM (inactive); in the test on EKVX, 96.2 µM (inactive); in the test with HCT-116, 22.1 µM (inactive); with HOP-62, 20.3 µM (inactive). The GI50 in the test with KM12 was 56.1 µM (inactive); in the test with MCF7, 11.1 µM (inactive); in the test on MDA-MB-435, 17.9 µM (inactive); in the test on NCI-H226 it was 26.6 µM (inactive); with NCI-H23 it was 16.7 µM (inactive); with NCI-H460, 2.03 µM (inactive). Also, the GI50 with RPMI-8226 was 39.4 µM (inactive); in the test on SF-295, 10 µM (inactive); in the test on SK-OV-3, 36.1 µM (inactive); in the test on SNB-75 it was 25.1 µM (inactive); in the test with SR it was 1.25 µM (inactive); with TK-10, 36.6 µM (inactive). The GI50 in the test with UO-31 is 25.7 µM (inactive).
As to `C=Cc1cc(OC)c2c(c1)c(=O)oc1c2cc(OC)c2c(O)ccc(C3OC(C)C(O)C(C)(O)C3O)c21` (stereo not given), the GI50 in the test with A498 was 0.0444 µM (active); in the test with ACHN, 0.000409 µM (active); with CCRF-CEM it was 0.0225 µM (active); in the test on EKVX it was 0.0398 µM (active); in the test with HCT-116, 0.0235 µM (active); with HCT-15 it was 0.0489 µM. In addition, the GI50 in the test on HOP-62 is 0.0225 µM (active); with MCF7 it was 0.0225 µM (active); in the test with MDA-MB-435 it was 0.00163 µM (active); in the test with NCI-H23 it was 0.0237 µM (active); in the test on NCI-H460, 0.0225 µM (active); in the test with RPMI-8226, 0.0294 µM (active). Also, the GI50 in the test with SF-295 is 0.0313 µM (active); in the test with SK-OV-3, 0.0445 µM (active); with SNB-75, 0.0302 µM (active); in the test with SR, 3.07e-06 µM (active); in the test on TK-10 it was 0.00249 µM (active); in the test on UO-31 it was 0.0454 µM (active).
Turning to `C=CCC1C(=O)Nc2cccc3ncn(c23)C1=O` (stereo not given), the GI50 in the test on A498 is > 100 µM (inactive); in the test with ACHN, > 100 µM (inactive); in the test with CCRF-CEM, > 100 µM (inactive); with EKVX, > 100 µM (inactive); in the test with HCT-116 it was > 100 µM (inactive); in the test on HCT-15 it was > 100 µM. For the same compound, the GI50 with HOP-62 is > 100 µM (inactive); in the test on KM12 it was 48.9 µM (inactive); in the test with MCF7, > 100 µM (inactive); with MDA-MB-435 it was > 100 µM (inactive); in the test on NCI-H226, > 100 µM (inactive); in the test on NCI-H23, > 100 µM (inactive). The GI50 with NCI-H460, in the test on RPMI-8226, in the test with SF-295, with SK-OV-3, in the test on SNB-75 and in the test with SR was > 100 µM (inactive) each time. Besides, the GI50 with UO-31 was > 100 µM (inactive).
`COc1c(C)c(OC)c(C(=O)CC(C)C)c(OC)c1C`: the GI50 is > 100 µM (inactive) with A498; > 100 µM (inactive) in the test on ACHN; > 100 µM (inactive) with CCRF-CEM; > 100 µM (inactive) with EKVX; 65.6 µM (inactive) with HCT-116; 37.1 µM in the test with HCT-15. The GI50 with HOP-62 was > 100 µM (inactive); with KM12 it was 74 µM (inactive); in the test on MCF7, > 100 µM (inactive); in the test with MDA-MB-435, > 100 µM (inactive); with NCI-H226 it was > 100 µM (inactive); in the test on NCI-H23, 83 µM (inactive). Further, the GI50 in the test on RPMI-8226 was 20.3 µM (inactive); in the test on SF-295, > 100 µM (inactive); in the test with SK-OV-3, > 100 µM (inactive); with SR, 21.4 µM (inactive); in the test with TK-10, > 100 µM (inactive); in the test with UO-31, 49.9 µM (inactive).
Take `O=C(Cn1c(C(=O)/C=C/c2cccs2)nc2ccccc21)c1ccc(Cl)cc1`: the GI50 in the test with A498 is 19.9 µM (inactive); in the test on ACHN it was 26.6 µM (inactive); in the test on HCT-116 it was 16.6 µM (inactive); in the test with HCT-15 it was 21.5 µM; with HOP-62 it was 25.9 µM (inactive); in the test with KM12, 11.1 µM (inactive). Besides, the GI50 with MCF7 is 16.3 µM (inactive); in the test on MDA-MB-435, 12.7 µM (inactive); in the test with NCI-H226, 53.8 µM (inactive); in the test on NCI-H23 it was 14.7 µM (inactive); in the test with NCI-H460, 10.5 µM (inactive); in the test on RPMI-8226 it was 8.05 µM (inactive). Further, the GI50 in the test with SK-OV-3 is 32.9 µM (inactive); in the test with SNB-75, 24.2 µM (inactive); in the test on SR, 3.09 µM (inactive); in the test with TK-10 it was 27 µM (inactive); in the test on UO-31, 24.1 µM (inactive).
For `CC(C)CC(NC(=O)OC(C)(C)C)C(=O)NC(CC(=O)OCc1ccccc1)C(=O)OCc1ccccc1` (stereo not drawn) (Boc-Leu-Asp(OBn)-OBn; configuration not given here), the GI50 with A498 was > 100 µM (inactive); with CCRF-CEM, 33.1 µM (inactive); in the test on EKVX, > 100 µM (inactive); with HCT-116 it was 30.7 µM (inactive); in the test on HOP-62, > 100 µM (inactive); in the test on KM12, 41.8 µM (inactive). For the same compound, the GI50 in the test on MCF7 was 31.5 µM (inactive); with MDA-MB-435, 40.1 µM (inactive); in the test on NCI-H226, 57.9 µM (inactive); with NCI-H23, 32.4 µM (inactive); with NCI-H460, 30.8 µM (inactive); in the test on RPMI-8226, 27.8 µM (inactive). Moreover, the GI50 with SF-295 is 43.7 µM (inactive); in the test with SK-OV-3, > 100 µM (inactive); with SNB-75 it was 87.9 µM (inactive); in the test on SR it was 25.8 µM (inactive); in the test on TK-10, 21.3 µM (inactive); with UO-31, 27 µM (inactive).
Take `CCOC(=O)c1sc2nc(SC)nc(Nc3ccc4c(c3)OCCCO4)c2c1N`: the GI50 was 26.7 µM (inactive) with A498; 26.9 µM (inactive) in the test on ACHN; 4.66 µM (inactive) with CCRF-CEM; 10.6 µM (inactive) in the test on EKVX; 67.1 µM (inactive) in the test with HCT-116; 10.9 µM in the test with HCT-15. For the same compound, the GI50 was 20.1 µM (inactive) with HOP-62; 24.2 µM (inactive) in the test with KM12; 7.71 µM (inactive) with MCF7; 11.1 µM (inactive) in the test with MDA-MB-435; 42.2 µM (inactive) with NCI-H226; 5.92 µM (inactive) in the test on NCI-H23. Also, the GI50 was 4.25 µM (inactive) in the test on RPMI-8226; 8.95 µM (inactive) in the test on SF-295; 55.6 µM (inactive) in the test with SK-OV-3; 16.7 µM (inactive) in the test on SR; 40.6 µM (inactive) with TK-10; 85.1 µM (inactive) with UO-31.
`CC(=O)OCC1OC(O[C@@H]2C[C@H]3C(C)(C)[C@H](OC(C)=O)CC[C@]3(C)[C@H]3CC[C@]4(C)C(=CC[C@H]4[C@@H](C)C[C@@H](O)[C@H](O)C(C)(C)O)[C@@]32C)C(O)C(O)C1O` (stereo not given in full): the GI50 in the test with A498 was 19.9 µM (inactive); in the test with ACHN, 16.7 µM (inactive); in the test with CCRF-CEM, 17.6 µM (inactive); in the test on EKVX, 19.1 µM (inactive); in the test on HCT-116 it was 14.4 µM (inactive); with HCT-15 it was 17.3 µM. Further, the GI50 in the test with HOP-62 is 15.8 µM (inactive); with MCF7, 17.3 µM (inactive); in the test on MDA-MB-435 it was 14.8 µM (inactive); with NCI-H23 it was 18.6 µM (inactive); in the test on NCI-H460, 17.5 µM (inactive); in the test on RPMI-8226 it was 12.2 µM (inactive). Further, the GI50 is 18.7 µM (inactive) in the test on SF-295; 18.5 µM (inactive) with SK-OV-3; 22 µM (inactive) in the test with SNB-75; 16.3 µM (inactive) in the test with SR; 17 µM (inactive) with TK-10; 17.4 µM (inactive) with UO-31.
Consider `CCCCOC(=O)NC(c1ccccc1)C(O)C(=O)OC1C[C@@]2(O)C(OC(=O)c3ccccc3)C3[C@](C)(C(=O)[C@H](OC(C)=O)C(=C1C)C2(C)C)[C@@H](O)C[C@H]1OC[C@@]31OC(C)=O` (stereo not given in full), for which the GI50 was 0.0056 µM (active) in the test on A498; 0.0678 µM (active) with ACHN; 0.00425 µM (active) in the test with CCRF-CEM; 0.0741 µM (active) in the test on EKVX; 0.00216 µM (active) in the test on HCT-116; 0.145 µM in the test with HCT-15. The GI50 was 0.0239 µM (active) in the test on HOP-62; 0.0031 µM (active) in the test with KM12; 0.00248 µM (active) in the test with MCF7; 0.00224 µM (active) in the test with MDA-MB-435; 0.0139 µM (active) with NCI-H23; 0.002 µM (active) in the test with NCI-H460. For the same compound, the GI50 in the test with RPMI-8226 is 0.00377 µM (active); in the test on SF-295, 0.0159 µM (active); in the test on SK-OV-3, 0.0205 µM (active); in the test with SNB-75 it was 0.0179 µM (active); with SR, 0.00499 µM (active); in the test on TK-10, 0.101 µM (active). For the same compound, in the test on UO-31, the GI50 is 0.176 µM (active).
As for `Cn1c(N)nc2c(nc(OCc3ccccc3)n2C2OC(CO)C(O)C2O)c1=O` (stereo not given), the GI50 in the test with A498, in the test on ACHN, with CCRF-CEM, with EKVX, in the test with HCT-116 and in the test on HOP-62 was > 100 µM (inactive) in each case. Besides, the GI50 in the test on KM12, in the test on MCF7, with MDA-MB-435, in the test with NCI-H226, in the test with NCI-H460 and with RPMI-8226 was > 100 µM (inactive) each time. For the same compound, the GI50 in the test with SF-295, with SK-OV-3, with SNB-75, in the test with SR, in the test with TK-10 and in the test with UO-31 was > 100 µM (inactive) in each case.
In the case of `CC1=Nc2sc3c(c2C2=NCCN12)CCCC3`, the GI50 in the test on A498 is 39.9 µM (inactive); in the test with ACHN, 25.8 µM (inactive); with EKVX, 23.4 µM (inactive); in the test with HCT-116, 20.9 µM (inactive); with HCT-15 it was 29.9 µM; in the test with HOP-62, 40.6 µM (inactive). The GI50 with KM12 is 16.8 µM (inactive); in the test with MCF7, 23.7 µM (inactive); with MDA-MB-435 it was 34 µM (inactive); in the test on NCI-H226, 15.1 µM (inactive); in the test on NCI-H23 it was 18.7 µM (inactive); in the test with NCI-H460, 19.7 µM (inactive). The GI50 in the test on RPMI-8226 is 19.8 µM (inactive); with SF-295, 33.5 µM (inactive); in the test on SNB-75, 37.2 µM (inactive); with SR, 23.2 µM (inactive); with TK-10, 36.8 µM (inactive); with UO-31, 17.1 µM (inactive).
